Source: ChEMBL document CHEMBL1201862, “PubChem BioAssay data set” (2004)
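Protocol summary: plate cells (96-well), add compound at 5 concentrations, incubate 48 h, interpolate endpoints linearly. GI50: concentration for 50% inhibition of growth.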 The source made the active and inactive calls. No stated cut-off is given here; in the data, active = GI50 up to about 1.1 µM and inactive = higher.

Experiments:
Assay in all cases: NCI-60 cell line screen, 48 h
[1] = system: 786-0
[2] = system: A498
[3] = system: ACHN
[4] = system: CAKI-1
[5] = system: EKVX
[6] = system: HCT-15
[7] = system: HL-60
[8] = system: HOP-92
[9] = system: MOLT-4
[10] = system: OVCAR-4
[11] = system: RPMI-8226
[12] = system: RXF 393
[13] = system: SK-MEL-28
[14] = system: SK-OV-3
[15] = system: SN12C
[16] = system: LOX IMVI
[17] = system: SF-268

CCOC(=O)C1=C(C)N(Cc2ccccc2)C(=O)C1CC#N (centres undefined)
GI50 [1]: > 100 µM (inactive)
GI50 [2]: > 100 µM (inactive)
GI50 [3]: > 100 µM (inactive)
GI50 [4]: > 100 µM (inactive)
GI50 [5]: > 100 µM (inactive)
GI50 [6]: > 100 µM
GI50 [7]: 26.7 µM (inactive)
GI50 [8]: 20.7 µM (inactive)
GI50 [9]: 55.3 µM (inactive)
GI50 [10]: 47.1 µM (inactive)
GI50 [11]: 99.8 µM (inactive)
GI50 [12]: 56 µM (inactive)
GI50 [13]: > 100 µM (inactive)
GI50 [14]: > 100 µM (inactive)
GI50 [15]: > 100 µM (inactive)

CCCCCCCCCCCCCP(=O)(NCC(N)=O)OCC (centres undefined)
GI50 [1]: 15.4 µM (inactive)
GI50 [2]: 35.6 µM (inactive)
GI50 [3]: 21.8 µM (inactive)
GI50 [5]: 19.2 µM (inactive)
GI50 [6]: 17.8 µM
GI50 [7]: 13.8 µM (inactive)
GI50 [8]: 17 µM (inactive)
GI50 [16]: > 10 µM (inactive)
GI50 [10]: 16.7 µM (inactive)
GI50 [12]: 22.5 µM (inactive)
GI50 [17]: 19.1 µM (inactive)
GI50 [13]: 18.2 µM (inactive)
GI50 [14]: 21.3 µM (inactive)
GI50 [15]: 18.3 µM (inactive)

CC(=O)CC(=O)NC=O
GI50 [1]: > 100 µM (inactive)
GI50 [2]: > 100 µM (inactive)
GI50 [3]: > 100 µM (inactive)
GI50 [4]: > 100 µM (inactive)
GI50 [5]: > 100 µM (inactive)
GI50 [6]: > 100 µM
GI50 [7]: > 100 µM (inactive)
GI50 [8]: > 100 µM (inactive)
GI50 [9]: > 100 µM (inactive)
GI50 [10]: > 100 µM (inactive)
GI50 [11]: > 100 µM (inactive)
GI50 [12]: > 100 µM (inactive)
GI50 [17]: > 100 µM (inactive)
GI50 [13]: > 100 µM (inactive)
GI50 [14]: > 100 µM (inactive)
GI50 [15]: > 100 µM (inactive)

C/C(=C\c1ccccc1)C(=O)c1c(C)cc(C)cc1C
GI50 [1]: > 100 µM (inactive)
GI50 [3]: > 100 µM (inactive)
GI50 [4]: > 100 µM (inactive)
GI50 [5]: > 100 µM (inactive)
GI50 [6]: > 100 µM
GI50 [7]: > 100 µM (inactive)
GI50 [8]: > 100 µM (inactive)
GI50 [9]: > 100 µM (inactive)
GI50 [10]: > 100 µM (inactive)
GI50 [11]: > 100 µM (inactive)
GI50 [12]: > 100 µM (inactive)
GI50 [17]: > 100 µM (inactive)
GI50 [13]: > 100 µM (inactive)
GI50 [14]: > 100 µM (inactive)
GI50 [15]: > 100 µM (inactive)

CC[C@@H]1OC2(C)CC(S(=O)(=O)c3ccccc3)CC1O2 (some centres undefined)
GI50 [1]: > 100 µM (inactive)
GI50 [3]: > 100 µM (inactive)
GI50 [4]: < 0.01 µM (active)
GI50 [5]: > 100 µM (inactive)
GI50 [6]: > 100 µM
GI50 [7]: > 100 µM (inactive)
GI50 [8]: > 100 µM (inactive)
GI50 [9]: > 100 µM (inactive)
GI50 [10]: > 100 µM (inactive)
GI50 [11]: > 100 µM (inactive)
GI50 [12]: > 100 µM (inactive)
GI50 [17]: > 100 µM (inactive)
GI50 [13]: > 100 µM (inactive)
GI50 [14]: > 100 µM (inactive)
GI50 [15]: > 100 µM (inactive)

CC(=O)C1CC2(c3ccccc3)C(=O)c3ccccc3N2O1 (centres undefined)
GI50 [1]: > 100 µM (inactive)
GI50 [2]: > 100 µM (inactive)
GI50 [3]: > 100 µM (inactive)
GI50 [5]: > 100 µM (inactive)
GI50 [6]: > 100 µM
GI50 [7]: > 100 µM (inactive)
GI50 [8]: > 100 µM (inactive)
GI50 [9]: > 100 µM (inactive)
GI50 [10]: > 100 µM (inactive)
GI50 [11]: > 100 µM (inactive)
GI50 [12]: > 100 µM (inactive)
GI50 [17]: > 100 µM (inactive)
GI50 [13]: > 100 µM (inactive)
GI50 [14]: > 100 µM (inactive)
GI50 [15]: > 100 µM (inactive)

Nc1ccc(C(=O)N/C(=C\c2ccc3c(c2)OCO3)c2nc3c(O)nc(S)nc3[nH]2)cc1
GI50 [1]: > 100 µM (inactive)
GI50 [3]: > 100 µM (inactive)
GI50 [4]: > 100 µM (inactive)
GI50 [5]: > 100 µM (inactive)
GI50 [6]: > 100 µM
GI50 [8]: 75.5 µM (inactive)
GI50 [9]: > 100 µM (inactive)
GI50 [10]: > 100 µM (inactive)
GI50 [12]: 33.8 µM (inactive)
GI50 [17]: > 100 µM (inactive)
GI50 [13]: > 100 µM (inactive)
GI50 [14]: > 100 µM (inactive)
GI50 [15]: > 100 µM (inactive)

CC12C(=O)N(CCN)C(=O)C1C1c3ccccc3C2c2ccccc21 (centres undefined)
GI50 [1]: > 100 µM (inactive)
GI50 [2]: > 100 µM (inactive)
GI50 [3]: > 100 µM (inactive)
GI50 [4]: > 100 µM (inactive)
GI50 [5]: > 100 µM (inactive)
GI50 [6]: > 100 µM
GI50 [7]: 77.8 µM (inactive)
GI50 [8]: 28.9 µM (inactive)
GI50 [9]: > 100 µM (inactive)
GI50 [10]: > 100 µM (inactive)
GI50 [11]: > 100 µM (inactive)
GI50 [17]: > 100 µM (inactive)
GI50 [13]: > 100 µM (inactive)
GI50 [14]: > 100 µM (inactive)
GI50 [15]: > 100 µM (inactive)

Cn1c2ccccc2n2c(=O)c3c(c(C#N)c12)CCCC3
GI50 [1]: > 100 µM (inactive)
GI50 [2]: > 100 µM (inactive)
GI50 [3]: > 100 µM (inactive)
GI50 [4]: > 100 µM (inactive)
GI50 [5]: > 100 µM (inactive)
GI50 [6]: > 100 µM
GI50 [7]: > 100 µM (inactive)
GI50 [16]: > 100 µM (inactive)
GI50 [9]: > 100 µM (inactive)
GI50 [10]: > 100 µM (inactive)
GI50 [11]: > 100 µM (inactive)
GI50 [12]: > 100 µM (inactive)
GI50 [17]: > 100 µM (inactive)
GI50 [13]: > 100 µM (inactive)
GI50 [14]: > 100 µM (inactive)
GI50 [15]: > 100 µM (inactive)

CCOC(=O)C(C)(C)Oc1ccc2c(-c3ccc(Cl)cc3)cc(=O)oc2c1
GI50 [1]: > 100 µM (inactive)
GI50 [2]: > 100 µM (inactive)
GI50 [3]: > 100 µM (inactive)
GI50 [5]: > 100 µM (inactive)
GI50 [6]: > 100 µM
GI50 [7]: > 100 µM (inactive)
GI50 [16]: > 100 µM (inactive)
GI50 [9]: > 100 µM (inactive)
GI50 [10]: > 100 µM (inactive)
GI50 [11]: > 100 µM (inactive)
GI50 [12]: > 100 µM (inactive)
GI50 [17]: > 100 µM (inactive)
GI50 [13]: > 100 µM (inactive)
GI50 [15]: > 100 µM (inactive)

CC1SC2=NC3=C(c4ccccc4C3=O)C(c3ccc(F)cc3)N2C1=O (centres undefined)
GI50 [1]: > 100 µM (inactive)
GI50 [2]: > 100 µM (inactive)
GI50 [3]: > 100 µM (inactive)
GI50 [4]: > 100 µM (inactive)
GI50 [5]: > 100 µM (inactive)
GI50 [6]: > 100 µM
GI50 [7]: > 100 µM (inactive)
GI50 [8]: 50.7 µM (inactive)
GI50 [9]: > 100 µM (inactive)
GI50 [10]: 42.5 µM (inactive)
GI50 [11]: 65.3 µM (inactive)
GI50 [17]: > 100 µM (inactive)
GI50 [13]: > 100 µM (inactive)
GI50 [14]: > 100 µM (inactive)
GI50 [15]: 63.7 µM (inactive)

Nc1ccc(Nc2nc(F)nc(-c3c4ccccc4c4n3CCS4)n2)cc1
GI50 [1]: 15.7 µM (inactive)
GI50 [3]: 12.7 µM (inactive)
GI50 [4]: 11 µM (inactive)
GI50 [5]: 18.1 µM (inactive)
GI50 [6]: 10.1 µM
GI50 [8]: 6.18 µM (inactive)
GI50 [16]: 10.4 µM (inactive)
GI50 [9]: 11.2 µM (inactive)
GI50 [10]: 15 µM (inactive)
GI50 [12]: 16 µM (inactive)
GI50 [17]: 15.7 µM (inactive)
GI50 [13]: 15.8 µM (inactive)
GI50 [14]: 15.3 µM (inactive)
GI50 [15]: 15.5 µM (inactive)

Cc1cc(Cl)ccc1NC1=NC(=O)C(CC(=O)Nc2ccc([N+](=O)[O-])cc2[N+](=O)[O-])S1 (centres undefined)
GI50 [1]: 34.8 µM (inactive)
GI50 [2]: 23.4 µM (inactive)
GI50 [3]: 25.1 µM (inactive)
GI50 [4]: 26.3 µM (inactive)
GI50 [5]: 38.6 µM (inactive)
GI50 [6]: 29.5 µM
GI50 [16]: 34.9 µM (inactive)
GI50 [9]: 19.4 µM (inactive)
GI50 [10]: 19.2 µM (inactive)
GI50 [11]: 17.9 µM (inactive)
GI50 [17]: 38 µM (inactive)
GI50 [13]: 36.8 µM (inactive)
GI50 [14]: 25.2 µM (inactive)
GI50 [15]: 26.9 µM (inactive)

C[C@@H]1C2=CC[C@@]3(C)C(CCC3[C@H](C)[C@H]3C[C@@]4(C)O[C@@](c5cccnc5)(O3)OC4(C)C)[C@@H]2C2OC2[C@@]12CCC(=O)O2 (some centres undefined)
GI50 [1]: 38.2 µM (inactive)
GI50 [2]: > 100 µM (inactive)
GI50 [3]: 46.5 µM (inactive)
GI50 [4]: 27.6 µM (inactive)
GI50 [6]: 32.1 µM
GI50 [7]: 17 µM (inactive)
GI50 [8]: 26.8 µM (inactive)
GI50 [16]: 31.5 µM (inactive)
GI50 [11]: 29.2 µM (inactive)
GI50 [17]: > 100 µM (inactive)
GI50 [13]: 90.8 µM (inactive)
GI50 [14]: 39.9 µM (inactive)
GI50 [15]: 33 µM (inactive)
